How the values were obtained:
[1] = biological target: Mitogen-activated protein kinase 14 (Homo sapiens, UniProt Q16539)
[2] = biological target: Mast/stem cell growth factor receptor Kit (Homo sapiens, UniProt P10721); assay: Inhibition of cKit
[3] = Oral bioavailability in Sprague-Dawley rat 10 mg/kg; format: ADME, organism-based; settings: in vivo
[4] = AUC (0 to infinity) in Sprague-Dawley rat 10 mg/kg, po; format: ADME, organism-based; set-up: dose 10 mg/kg, route oral, time infinity; settings: plasma
[5] = Volume of distribution at steady state in Sprague-Dawley rat 2 mg/kg, iv; format: ADME, organism-based; set-up: dose 2 mg/kg, route intravenous; settings: in vivo, read-out: Vdss
[6] = Half life in Sprague-Dawley rat 2 mg/kg, iv; format: ADME, organism-based; set-up: dose 2 mg/kg, route intravenous; settings: in vivo
[7] = Clearance in Sprague-Dawley rat 2 mg/kg, iv; format: ADME, organism-based; set-up: dose 2 mg/kg, route intravenous; settings: in vivo
THP-1 = assay: Inhibition of LPS-induced TNFalpha production in human THP1 cells; format: functional, cell-based
[8] = biological target: Tyrosine-protein kinase Lck (Homo sapiens, UniProt P06239)
Chain of Tyrosine-protein kinase Lck (P06239 whole entry): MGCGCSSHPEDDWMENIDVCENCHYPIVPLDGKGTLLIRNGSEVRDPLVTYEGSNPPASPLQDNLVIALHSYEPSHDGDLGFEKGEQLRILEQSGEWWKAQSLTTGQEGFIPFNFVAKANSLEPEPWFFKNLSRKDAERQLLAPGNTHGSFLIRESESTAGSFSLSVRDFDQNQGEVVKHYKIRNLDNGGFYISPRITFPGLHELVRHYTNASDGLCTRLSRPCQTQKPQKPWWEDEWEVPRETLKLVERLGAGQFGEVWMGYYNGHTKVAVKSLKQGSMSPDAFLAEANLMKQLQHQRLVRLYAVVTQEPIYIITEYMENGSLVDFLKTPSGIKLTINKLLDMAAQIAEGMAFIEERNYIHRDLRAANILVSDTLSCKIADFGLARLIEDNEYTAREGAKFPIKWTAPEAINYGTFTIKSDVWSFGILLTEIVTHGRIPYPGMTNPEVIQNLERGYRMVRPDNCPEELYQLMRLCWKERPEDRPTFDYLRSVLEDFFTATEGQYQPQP

Blood = assay: Inhibition of TNF-alpha-induced IL8 production in human whole blood cells; format: functional, cell-based
[9] = biological target: Mitogen-activated protein kinase 9 (Homo sapiens, UniProt P45984); assay: Inhibition of JNK2
Chain of Mitogen-activated protein kinase 9 (P45984 whole entry): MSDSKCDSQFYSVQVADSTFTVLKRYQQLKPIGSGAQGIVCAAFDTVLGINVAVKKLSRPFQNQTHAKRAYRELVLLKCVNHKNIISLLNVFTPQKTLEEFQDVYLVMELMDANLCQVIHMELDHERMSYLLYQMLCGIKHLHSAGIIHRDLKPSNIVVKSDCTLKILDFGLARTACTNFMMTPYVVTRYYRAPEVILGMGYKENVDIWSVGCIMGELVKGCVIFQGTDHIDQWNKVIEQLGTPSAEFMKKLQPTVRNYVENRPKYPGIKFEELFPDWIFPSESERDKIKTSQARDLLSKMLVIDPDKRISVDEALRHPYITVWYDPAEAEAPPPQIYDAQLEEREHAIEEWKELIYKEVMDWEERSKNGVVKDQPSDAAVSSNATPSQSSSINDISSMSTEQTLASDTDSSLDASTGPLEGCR

[10] = biological target: Mitogen-activated protein kinase 8 (Homo sapiens, UniProt P45983); assay: Inhibition of JNK1
Chain of Mitogen-activated protein kinase 8 (P45983 whole entry): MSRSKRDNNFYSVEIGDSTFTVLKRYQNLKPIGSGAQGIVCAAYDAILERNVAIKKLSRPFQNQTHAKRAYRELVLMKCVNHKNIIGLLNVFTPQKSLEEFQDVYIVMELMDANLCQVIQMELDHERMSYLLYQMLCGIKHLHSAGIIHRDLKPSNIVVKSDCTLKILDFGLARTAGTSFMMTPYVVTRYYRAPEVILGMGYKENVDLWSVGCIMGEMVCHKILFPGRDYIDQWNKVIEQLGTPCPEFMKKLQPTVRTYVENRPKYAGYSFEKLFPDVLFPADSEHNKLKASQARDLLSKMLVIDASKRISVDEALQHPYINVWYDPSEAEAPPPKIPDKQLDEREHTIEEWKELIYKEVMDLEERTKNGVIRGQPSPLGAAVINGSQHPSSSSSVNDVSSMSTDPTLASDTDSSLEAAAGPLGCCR

[11] = biological target: Mitogen-activated protein kinase 10 (Homo sapiens, UniProt P53779); assay: Inhibition of JNK3
Chain of Mitogen-activated protein kinase 10 (P53779 whole entry): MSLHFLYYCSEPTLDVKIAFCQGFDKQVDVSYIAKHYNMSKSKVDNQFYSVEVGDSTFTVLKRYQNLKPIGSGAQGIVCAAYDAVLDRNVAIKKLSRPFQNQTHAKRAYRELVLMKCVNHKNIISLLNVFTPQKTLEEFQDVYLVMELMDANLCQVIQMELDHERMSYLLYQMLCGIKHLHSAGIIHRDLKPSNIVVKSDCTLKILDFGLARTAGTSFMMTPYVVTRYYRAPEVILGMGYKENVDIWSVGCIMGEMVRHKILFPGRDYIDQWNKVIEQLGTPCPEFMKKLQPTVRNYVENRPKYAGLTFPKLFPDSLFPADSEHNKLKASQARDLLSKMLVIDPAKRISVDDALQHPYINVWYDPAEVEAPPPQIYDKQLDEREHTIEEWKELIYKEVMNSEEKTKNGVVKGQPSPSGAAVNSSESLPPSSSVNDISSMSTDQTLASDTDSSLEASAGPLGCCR

[12] = biological target: Vascular endothelial growth factor receptor 2 (Homo sapiens, UniProt P35968)
Chain of Vascular endothelial growth factor receptor 2 (P35968 whole entry): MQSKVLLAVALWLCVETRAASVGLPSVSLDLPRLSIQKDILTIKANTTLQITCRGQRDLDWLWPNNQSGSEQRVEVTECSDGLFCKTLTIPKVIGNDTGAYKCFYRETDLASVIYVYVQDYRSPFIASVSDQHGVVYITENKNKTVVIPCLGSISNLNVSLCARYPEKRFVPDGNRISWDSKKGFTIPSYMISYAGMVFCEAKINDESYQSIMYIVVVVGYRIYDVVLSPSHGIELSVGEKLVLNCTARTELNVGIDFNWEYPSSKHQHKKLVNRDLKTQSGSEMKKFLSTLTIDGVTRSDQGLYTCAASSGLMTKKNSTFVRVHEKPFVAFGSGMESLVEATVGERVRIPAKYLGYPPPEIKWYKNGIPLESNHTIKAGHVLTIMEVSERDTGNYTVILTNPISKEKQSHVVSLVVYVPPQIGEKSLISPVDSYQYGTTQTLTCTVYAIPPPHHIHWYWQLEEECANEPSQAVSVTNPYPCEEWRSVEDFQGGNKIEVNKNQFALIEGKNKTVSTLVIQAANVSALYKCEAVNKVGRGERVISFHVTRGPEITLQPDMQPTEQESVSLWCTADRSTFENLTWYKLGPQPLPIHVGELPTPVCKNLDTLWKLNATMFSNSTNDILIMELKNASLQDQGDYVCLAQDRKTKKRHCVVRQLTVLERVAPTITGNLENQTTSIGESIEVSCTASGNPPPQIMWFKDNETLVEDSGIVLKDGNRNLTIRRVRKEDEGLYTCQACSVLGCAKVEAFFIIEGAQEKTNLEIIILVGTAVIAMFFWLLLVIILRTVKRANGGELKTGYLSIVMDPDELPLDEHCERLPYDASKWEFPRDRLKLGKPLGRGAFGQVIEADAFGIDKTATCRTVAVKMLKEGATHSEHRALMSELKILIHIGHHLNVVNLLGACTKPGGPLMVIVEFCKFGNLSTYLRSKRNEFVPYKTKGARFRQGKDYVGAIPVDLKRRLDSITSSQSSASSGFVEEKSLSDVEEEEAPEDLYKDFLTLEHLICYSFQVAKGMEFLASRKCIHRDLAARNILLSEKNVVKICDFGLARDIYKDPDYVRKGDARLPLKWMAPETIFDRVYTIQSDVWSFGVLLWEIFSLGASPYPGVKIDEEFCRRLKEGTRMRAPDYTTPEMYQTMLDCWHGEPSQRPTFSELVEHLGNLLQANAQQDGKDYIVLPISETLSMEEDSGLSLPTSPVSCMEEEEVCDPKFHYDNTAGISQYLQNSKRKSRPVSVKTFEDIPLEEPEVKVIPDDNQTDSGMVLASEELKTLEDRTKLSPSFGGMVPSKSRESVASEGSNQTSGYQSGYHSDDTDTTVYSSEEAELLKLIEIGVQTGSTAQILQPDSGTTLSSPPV

[13] = Inhibition of PDGFR
Rattus norvegicus [14] = species on record: Rattus norvegicus; assay: Inhibition of LPS-induced TNFalpha production in Lewis rat; format: functional
Rattus norvegicus [15] = assay: Antiinflammatory activity against collagen-induced arthritis in po dosed Lewis rat model assessed as inhibition of paw swelling; format: functional
[16] = biological target: Tyrosine-protein kinase Lyn (Homo sapiens, UniProt P07948); assay: Inhibition of Lyn
Chain of Tyrosine-protein kinase Lyn (P07948 whole entry): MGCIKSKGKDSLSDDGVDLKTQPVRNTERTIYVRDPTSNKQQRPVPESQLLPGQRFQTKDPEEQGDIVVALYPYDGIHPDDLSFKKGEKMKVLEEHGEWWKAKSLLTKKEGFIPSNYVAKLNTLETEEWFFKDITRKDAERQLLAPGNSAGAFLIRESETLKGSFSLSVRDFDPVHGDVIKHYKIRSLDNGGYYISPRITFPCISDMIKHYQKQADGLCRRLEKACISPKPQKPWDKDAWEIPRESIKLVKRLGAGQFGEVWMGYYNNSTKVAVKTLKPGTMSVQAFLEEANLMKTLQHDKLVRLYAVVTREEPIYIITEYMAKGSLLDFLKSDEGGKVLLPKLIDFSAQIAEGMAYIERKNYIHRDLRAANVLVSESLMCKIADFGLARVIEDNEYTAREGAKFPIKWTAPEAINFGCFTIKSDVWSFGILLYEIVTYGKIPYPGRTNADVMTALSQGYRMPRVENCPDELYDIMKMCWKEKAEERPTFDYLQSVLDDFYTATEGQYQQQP

Rattus norvegicus [17] = assay: Antiinflammatory activity against collagen-induced arthritis Lewis rat model assessed as area under the paw swelling curve at 0.04 mg/kg, po relative to control; format: functional, organism-based; set-up: dose 0.04 mg/kg
[18] = Volume of distribution at steady state in Sprague-Dawley rat 1 mg/kg, iv; format: ADME, organism-based; set-up: dose 1 mg/kg, route intravenous; settings: in vivo, read-out: Vdss
[19] = Half life in Sprague-Dawley rat 1 mg/kg, iv; format: ADME, organism-based; set-up: dose 1 mg/kg, route intravenous; settings: in vivo
[20] = AUC (0 to infinity) in Sprague-Dawley rat 1 mg/kg, po; format: ADME, organism-based; set-up: time infinity, dose 1 mg/kg, route oral; settings: plasma
[21] = Permeability from basolateral to apical side of human Caco-2 cells; format: ADME, cell-based
[22] = Clearance in Sprague-Dawley rat 1 mg/kg, iv; format: ADME, organism-based; set-up: dose 1 mg/kg, route intravenous; settings: in vivo
[23] = Oral bioavailability in Sprague-Dawley rat 1 mg/kg; format: ADME, organism-based; settings: in vivo
[24] = Permeability from apical to basolateral side of human Caco-2 cells; format: ADME, cell-based

Chain of Mast/stem cell growth factor receptor Kit (P10721 whole entry): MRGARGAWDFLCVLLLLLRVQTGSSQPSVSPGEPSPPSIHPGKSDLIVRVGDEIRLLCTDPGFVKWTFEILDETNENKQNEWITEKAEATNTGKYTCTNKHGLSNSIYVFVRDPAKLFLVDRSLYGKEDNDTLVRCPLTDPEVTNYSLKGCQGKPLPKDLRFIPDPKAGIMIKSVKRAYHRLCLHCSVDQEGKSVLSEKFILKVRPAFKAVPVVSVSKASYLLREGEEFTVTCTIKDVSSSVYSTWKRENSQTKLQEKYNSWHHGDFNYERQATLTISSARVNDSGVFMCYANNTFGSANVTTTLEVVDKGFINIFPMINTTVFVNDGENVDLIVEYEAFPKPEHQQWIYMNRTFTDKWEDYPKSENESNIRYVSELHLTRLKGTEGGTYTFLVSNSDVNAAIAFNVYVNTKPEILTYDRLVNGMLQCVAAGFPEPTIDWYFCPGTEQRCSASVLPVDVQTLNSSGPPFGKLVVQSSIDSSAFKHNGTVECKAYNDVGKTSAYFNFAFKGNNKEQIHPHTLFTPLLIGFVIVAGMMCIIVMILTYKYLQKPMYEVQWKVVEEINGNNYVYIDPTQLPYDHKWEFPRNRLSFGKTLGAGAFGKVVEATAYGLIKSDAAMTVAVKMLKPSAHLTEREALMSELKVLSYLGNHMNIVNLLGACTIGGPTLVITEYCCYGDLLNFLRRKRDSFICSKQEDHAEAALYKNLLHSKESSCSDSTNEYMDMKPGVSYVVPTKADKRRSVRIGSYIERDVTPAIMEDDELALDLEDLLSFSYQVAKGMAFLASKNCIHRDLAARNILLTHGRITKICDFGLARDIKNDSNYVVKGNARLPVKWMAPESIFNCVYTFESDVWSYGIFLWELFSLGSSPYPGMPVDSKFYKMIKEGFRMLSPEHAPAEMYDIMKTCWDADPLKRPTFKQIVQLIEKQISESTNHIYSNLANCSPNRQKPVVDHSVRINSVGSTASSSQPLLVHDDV
Chain of Mitogen-activated protein kinase 14 (Q16539 whole entry): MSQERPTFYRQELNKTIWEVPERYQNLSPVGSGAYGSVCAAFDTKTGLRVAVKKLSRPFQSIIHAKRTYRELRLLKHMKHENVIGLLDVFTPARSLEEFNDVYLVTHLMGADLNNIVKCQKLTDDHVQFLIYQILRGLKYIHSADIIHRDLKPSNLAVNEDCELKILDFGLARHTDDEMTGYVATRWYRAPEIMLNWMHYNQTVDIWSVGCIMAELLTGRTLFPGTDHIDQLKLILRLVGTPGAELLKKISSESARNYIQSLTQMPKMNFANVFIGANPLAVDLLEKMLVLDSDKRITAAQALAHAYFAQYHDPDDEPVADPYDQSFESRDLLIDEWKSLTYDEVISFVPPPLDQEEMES

SMILES	IC50 [1] [nM]	IC50 [2] [nM]	bioavailability [3] [%]	AUC(0-inf) [4] [ng·h/mL]	Vd [5] [L/kg]	half-life [6] [h]	clearance [7] [mL/min/kg]	IC50 (THP-1) [nM]	IC50 [8] [nM]	IC50 (Blood) [nM]	IC50 [9] [nM]	IC50 [10] [nM]	IC50 [11] [nM]	IC50 [12] [nM]	further results
O=C(NC1CC1)c1cccc(-c2ccc3c(N4CCOCC4)nncc3c2)c1	182	> 8330													
Cc1ccc(C(=O)NC2CC2)cc1-c1ccc2c(OC(C)C)cncc2c1	0.6	41													
Cc1ccc(C(=O)NC2CC2)cc1-c1ccc2c(-c3ccccc3C)nncc2c1			40	2330	1.8	1.4	28.3								
Cc1ccc(C(=O)NC2CC2)cc1-c1ccc2c(-c3ccccc3)nncc2c1	2	149						0.8	1340	3.5	> 10000	> 10000	> 10000	6290	
Cc1ccc(C(=O)NC2CC2)cc1-c1ccc2c(O[C@H](C)C(F)(F)F)nncc2c1	0.8	1170						0.9	6050	8.1	4390	> 10000	9490	505	
Cc1ccc(C(=O)NC2CC2)cc1-c1ccc2c(N3CCOC[C@@H]3C)nncc2c1	1.1	2010	57	7090	1.2	1.3	13.3	1.1	> 10000	1.2	4830	> 10000	> 10000	8550	
Cc1ccc(C(=O)NC2CC2)cc1-c1ccc2c(OC(C)C)nncc2c1	0.6	421	92	10900	2.1	1.8	13.3	0.4	3610	1.6	5950	> 10000	> 10000	1140	
Cc1ccc(C(=O)NC2CC2)cc1-c1ccc2c(O[C@@H](C)C(F)(F)F)nncc2c1	1	1060	72	21100	4.7	9.9	5.83	0.4	> 5000	2.7	7770	> 10000	> 10000	2680	IC50 [13]: 88 nM; ED50 (Rattus norvegicus [14]): < 0.03 mg/kg; ED50 (Rattus norvegicus [15]): 0.04 mg/kg; IC50 [16]: 954 nM; AUC (Rattus norvegicus [17]): 51.1 ng·h/mL
Cc1ccc(C(=O)NC2CC2)cc1-c1ccc2c(N3CCOCC3)nncc2c1	1.2	529						0.7	3810	0.9	9690	> 10000	> 10000	3040	Vd [18]: 3.5 L/kg; half-life [19]: 4.1 h; AUC(0-inf) [20]: 124 ng·h/mL; Papp B→A [21]: 39.8 ×10⁻⁶ cm/s; clearance [22]: 28.3 mL/min/kg; bioavailability [23]: 22%; Papp A→B [24]: 10.5 ×10⁻⁶ cm/s
Cc1ccc(C(=O)NC2CC2)cc1-c1ccc2c(NCCN3CCOCC3)nncc2c1	1.9	1060	1	39	2.8	2.3	20	24.9	> 10000	4.3	> 10000	> 10000	> 10000	5140	Papp B→A [21]: 31 ×10⁻⁶ cm/s; Papp A→B [24]: 0.3 ×10⁻⁶ cm/s

From ChEMBL document CHEMBL1140163 (J Med Chem, 2008)
